Measurements as given in US20110028758A1, “Trans-cinnamic acid derivative, its preparation mathod and the use” (priority 2007, published 2011).
Where two headings read alike, the source gives them in different places.

Columns and labels:
[1] = Description: (§1) The 180 tumor-bearing mice are divided into 18 groups by the weigh of the mice, wherein each group has 10 mice (half male and half female). The drug delivery methods of each group are shown in Table 3 to illustrate eighteen groups of mice drug delivery situation.
(§2) Group 2 is the cyclophosphamide (CTX) group, and the mice of group 2 are only given the cyclophosphamide in the intraperitoneal of the mice on the second day of the tumor-bearing.
(§3) Group 3 to 18 groups are given the four compounds respectively, wherein the groups delivered 25 mg/kg drug are tail vein low-dose group, wherein the groups delivered 50 mg/kg drugs are the tail vein medium-dose group, wherein the groups delivered 100 mg/kg drugs are the tail vein high-dose group, wherein the groups delivered 200 mg/kg drugs are the oral enteral group. These mice from group 3 to 18 start the drug delivery on the second day of the tumor-bearing, and delivered once a day for 10 sequent days.
After the drug delivery, weight the mice weight, then execute the mice, and then weight the spleen and thymus weight by electronic weighting scale respectively. The spleen index and thymus index are the weight (mg) of mice spleen, thymus of each group/mice weight (g).

[2] = system: mice ascites hepatoma cell strain H22; test: Anti-tumor test in vivo, mice transplanted tumor of liver cancer H22; set-up: species or system Kunming mice
Procedure: The mice ascites hepatoma cell strain H22 is purchased from the Experimental Center of Zhongshan University.
Recovery the mice ascites hepatoma cell strain H22, put the cell suspension liquid into a centrifugal tube and use the 4° C. saline to wash the suspension liquid twice, then centrifuge to discard the supernatant, add appropriate 4° C. saline to dilute the suspension liquid, count cells with 0.2% trypan blue, adjust the density to 10^7 cell/ml, according to 0.2 (ml/mice) intraperitoneal inoculation H22 cell suspension liquid.
After ten days of the intraperitoneal inoculation, the cervical vertebra is dislocated. Disinfect the mice abdominal skin, and suck the milky ascites with a sterile syringe, then adjust the concentration of tumor cells to 1×10^7 cell/ml with injection used saline. Disinfect the right armpit skin of the Kunming mice with alcohol swab, subcutaneously vaccinate the cell suspension liquid 0.2 ml, conventional feeding. […] Totally there are 180 tumor-bearing mice.
as §1
Group 1 is the model group, and the mice of group 1 are given the tail vein saline injection daily started on the second day of the tumor-bearing for 10 days.
as §2, §3
The above drug deliveries are 20 ml/kg.
After finishing the drug delivery process, weight the mice, then kill the mice by pulling off the neck, and anatomy to get the tumor tissue of the mice on the next day of finishing the drug delivery process, and then weight the anatomized tumor by electronic weighing scales to calculate the inhibition rate.

[3] = system: human breast cancer MCF-7/S cells; test: MTT anti-tumor test in vitro, MCF-7/S; assay type: cell-based; settings: MCF-7 (MCF-7/S)
Description: (§4) A complete culture medium is used for diluting the above original solution into corresponding concentrations for later use.
(§5) Human cervical carcinoma Hela cells, human hepatoma BEL-7402 cells, mucinous Human epidermoid A549 lung cancer cells, human breast cancer MCF-7/S cells, human glioma U251 cells, and human normal embryonic kidney HEK-293 cells are purchased from USA, American Type Culture Collection (ATCC). All the tumor cells are used the DMEM medium (containing 10% FBS, 100 U/ml penicillin and 100 μg/ml streptomycin) for culturing and subculturing, and HEK-293 cells are using RPMI1640 medium (10% FBS, 100 U/ml penicillin, and 100 μg/ml streptomycin) for culturing and subculturing, wherein the culture condition is in a 5% CO2 incubator at 37° C.
(§6) Subculture six kinds of cells, which has a logarithmic growing period, adherent rate about 80%, and in good condition, such as human cervical carcinoma Hela cells, human hepatoma BEL-7402 cells, mucinous Human epidermoid A549 lung cancer cells, human breast cancer MCF-7/S cells, human glioma U251 cells, and human normal embryonic kidney HEK-293 cells. Discard the culture medium, rinse 1-2 times with PBS to remove serum, add 1 ml 0.25% Trypsin-0.01% EDTA (37° C. incubation) to digest for 1-2 minutes, add FBS culture medium to terminate the above digestion, centrifuge at a speed below 800 r/min for 2-3 minutes and discard the supernatant, re-suspended cells in 10% FBS medium, tack the cell suspension liquid for cell counting, adjust the density of the above liquid to 1×10^5/ml, then inoculate to a 96-holes plates (100 μl/hole), and then incubate in 5% CO2 incubator at 37° C. overnight. The next day add above cells to different concentrations of I-a, I-b, I-c and I-d, 100 μl/hole (its final concentration is respectively 30, 60, 120, 240, 480 μg/ml); meanwhile, set up the blank control group (0 μM), and establish 3 holes. Continuing the cultural process, discard the culture medium after 48 hours that the drug has been effected, add 100 μl PBS of 0.5 mg/ml MTT (PH 7.2) into each holes, after 4 hours culture, remove the culture medium by adherent cells express flipping method, add 100 μl of DMSO to each holes, oscillate it by micro-oscillation device for 5 minutes, and measure the OD value at 490 nm wavelength. Repeat the above experiment three times to get an average value. Calculate the inhibition rate (IR %) of the tumor cell proliferation in vitro from different concentrations of I-a, I-b, I-c, I-d by the following formula:
(§7) IR %=(1−ODsampale/ODcontrol)×100%
(§8) Use SPSS11.5 software to calculate the half inhibitory concentration IC50 of I-a, I-b, I-c and I-d. The results are shown in Table 2 to illustrate IC50 values (unit: μg/ml) of the four compounds.

[4] = system: human hepatoma BEL-7402 cells; test: MTT anti-tumor test in vitro, BEL-7402; assay type: cell-based; settings: Bel- (BEL-7402)
Description: as §4, §5, §6, §7, §8

[5] = system: mucinous Human epidermoid A549 lung cancer cells; test: MTT anti-tumor test in vitro, A549; assay type: cell-based; settings: for IC50 value: A549, MTT, 48 hours
Description: as §4, §5, §6, §7, §8

[6] = single tail vein administration 350 mg/kg
Procedure: After the drug delivery, continuously observe the mice responses for 4 hours; after all, observe the mice twice a day (one is in the morning, and the other is in the afternoon) for 14 days, wherein the observation includes the appearance, behavior, secretions, excreta of the mice etc., and recording all the death situation, poisoning symptoms, the starting time and ending time of toxic reactions of the mice, severity, duration time of toxic, and to see if it is reversible reaction etc., sent it to the pathology examination if necessary, weight the mice before and after the drug delivered day of 3, 7, 10, and 14 days. After finishing the observation process, execute all of the mice, and anatomize the dead bodies of mice.

[7] = system: human normal embryonic kidney HEK-293 cells; test: MTT test on normal cells, HEK-293; assay type: cell-based; settings: HEK- (HEK-293), MTT, 48 hours
Description: as §4, §5
Subculture six kinds of cells, which has a logarithmic growing period, adherent rate about 80%, and in good condition, such as human cervical carcinoma Hela cells, human hepatoma BEL-7402 cells, mucinous Human epidermoid A549 lung cancer cells, human breast cancer MCF-7/S cells, human glioma U251 cells, and human normal embryonic kidney HEK-293 cells. […] Repeat the above experiment three times to get an average value.
as §7

[8] = system: human cervical carcinoma Hela cells; test: MTT anti-tumor test in vitro, Hela; assay type: cell-based; settings: for IC50 value: Hela, MTT, 48 hours
Description: as §4, §5, §6, §7, §8

human glioma U251 cells = test: MTT anti-tumor test in vitro, U251; assay type: cell-based
Description: as §4, §5, §6, §7, §8

[9] = ip. 60/single mg/kg on the second day of tumor-bearing, H22 tumor-bearing mice
[10] = ip. 60/single mg/kg on the second day of tumor-bearing
[11] = average of three experiments ± SD, 48 hours
[12] = average of three experiments ± SD

For `O=P1(N(CCCl)CCCl)NCCCO1` (centres unmarked) [CTX, cyclophosphamide, reference compound], the “Mice weight/g After drug delivery” value [1, 9] was 19.6 ± 2.0 g, the “Mice weight/g Before drug deli.” value [1, 9] was 23.6 ± 1.8 g and the “Spleen index/mg · g^−1” value [1, 9] was 3.00 ± 0.59 mg/g. The “Thymus index/mg · g^−1” value [1, 9] was 2.46 ± 0.65 mg/g, the “IR/% (inhibition rate)” value [2, 10] was 55.2% and the Tumor weight/g [2, 10] was 0.686 ± 0.303 g.

Molecule “2,4-dimethoxy-3-isopentenyl-cinnamic acid (E:Z=1:1) [I-d]” has an IC50 value [3, 11] of 193.46 ± 7.57 µg/mL, an IC50 value ([3]; experiment 1, 48 hours) of 200 µg/mL and an IC50 value ([3]; experiment 2, 48 hours) of 196 µg/mL. It also gave an IC50 value [4, 11] of 216.72 ± 5.07 µg/mL, an IC50 value ([4]; experiment 1, 48 hours) of 221 µg/mL and an IC50 value ([4]; experiment 2, 48 hours) of 211 µg/mL. For the same molecule, the IC50 value ([5]; experiment 1) was 190 µg/mL, the IC50 value ([5]; experiment 2) was 183 µg/mL and the “A549 cell proliferation IC50 values” ([5]; at 48 hours) was 184.56 ± 5.80 µg/mL. For the same molecule, the “drug reaction after administration” value [6] was “abnormally excited at first, and then become in an inhibit state”, the IC50 value [7, 12] was 350.77 ± 14.09 µg/mL and the IC50 value ([7]; experiment 1) was 347 µg/mL. For the same molecule, the IC50 value ([7]; experiment 2) was 366 µg/mL, the IC50 value [8, 12] was 153.59 ± 13.03 µg/mL and the IC50 value ([8]; experiment 1) was 144 µg/mL. For the same molecule, the IC50 value ([8]; experiment 2) was 149 µg/mL, the “HeLa cell proliferation IC50 values” ([8]; at 48 hours) was 148.59 ± 5.96 µg/mL and the “Mice weight/g After drug delivery” value ([1]; mouse, in vivo) was 20.0 ± 2.1 g. For the same molecule, the “Mice weight/g Before drug deli.” value ([1]; mouse, in vivo) was 24.6 ± 2.9 g, the “effect near the tail vein of the mice and its surrounding tissue” value ([1]; mouse, in vivo) was “irritation or corrosive” and the “general observation after injection (central nervous signs)” value ([1]; mouse, in vivo) was “central nerve inhibition phenomenon”. The “splenomegaly of the tumor-bearing mice” value ([1]; mouse, in vivo) was “can cause the splenomegaly”, the Tumor weight/g ([2]; i.g. 200 mg·(kg·d)^−1, once a day for 10 days) was 0.991 ± 0.410 g and the Tumor weight/g ([2]; i.v. 25 mg·(kg·d)^−1, once a day for 10 days) was 1.307 ± 0.436 g. For the same molecule, the “IR/% (inhibition rate)” value ([2]; i.v. 25 mg·(kg·d)^−1, once a day for 10 days (low-dose group)) was 14.7%, the Tumor weight/g ([2]; i.v. 50 mg·(kg·d)^−1, once a day for 10 days) was 1.068 ± 0.437 g and the “IR/% (inhibition rate)” value ([2]; i.v. 50 mg·(kg·d)^−1, once a day for 10 days (medium-dose group)) was 30.3%. For the same molecule, the Tumor weight/g ([2]; i.v. 100 mg·(kg·d)^−1, once a day for 10 days) was 0.901 ± 0.425 g, the “IR/% (inhibition rate)” value ([2]; i.v. 100 mg·(kg·d)^−1, once a day for 10 days (high-dose group)) was 41.2% and the IC50 value (human glioma U251 cells; [11]) was 204.44 ± 9.50 µg/mL. It also gave an IC50 value (human glioma U251 cells; experiment 1, 48 hours) of 210 µg/mL and an IC50 value (human glioma U251 cells; experiment 2, 48 hours) of 193 µg/mL.
